Results as given in publication PMC11121837, “Impact of Nitric Oxide-Release Kinetics on Antifungal Activity” (Journal of Fungi, 2024).
In brackets after ≈: the same amount, converted by molar mass.

Assays:
[1] = system: C. neoformans (ATCC 208821); assay: Checkerboard assay of NO donors with antifungals; assay type: cell-based, Cryptococcus neoformans
Candida albicans = assay: Susceptibility assay (MIC, broth microdilution, CLSI M27); assay type: cell-based; conditions: for MIC: 24 h; for NO dose at MIC: calculated NO dose at MIC
Candida auris = assay: as above; assay type: cell-based; conditions: for MIC / NO dose at MIC: Candidozyma auris; for MIC: 24 h; for NO dose at MIC: calculated NO dose at MIC
Cryptococcus neoformans = assay: as above; assay type: cell-based; conditions: for MIC / NO dose at MIC: Cryptococcus neoformans; for MIC: 72 h; for NO dose at MIC: calculated NO dose at MIC
panel of fungal isolates = assay: Susceptibility assays, summary over the panel of fungal isolates; assay type: cell-based; conditions: IC50 AIR-100 / MIC
[2] = Characterization of NO release (chemiluminescence nitric oxide analyzer); assay type: physicochemical
[3] = system: C. albicans (ATCC MYA-2876); assay: Checkerboard assay of NO donors with antifungals; assay type: cell-based, Candida albicans
C. auris (MYA-5001) = assay type: cell-based, Candida auris
C. auris (ATCC MYA-5001) = assay: Checkerboard assay of NO donors with antifungals; assay type: cell-based, Candida auris
[4] = system: Aspergillus fumigatus spores; assay: Susceptibility assay for sporulating fungi (MIC, EUCAST E.Def.9.4); assay type: cell-based; conditions: for Selectivity Index (IC50 AIR-100 / MIC): A. fumigatus ATCC 1022; for MIC / NO dose at MIC: ATCC1022, Aspergillus fumigatus ATCC 1022 spores; for NO dose at MIC: calculated NO dose at MIC
[5] = system: C. neoformans (ATCC208821); assay type: cell-based, Cryptococcus neoformans
[6] = system: MatTek EpiAirway tissue (AIR-100); assay: cells; assay type: cell-based; conditions: Homo sapiens, 24 h, read-out: IC50 (concentration needed to inhibit tissue viability by 50%)
[7] = NO donor combined with 5-fluorocytosine
[8] = NO donor combined with amphotericin B
[9] = NO donor combined with butenafine
[10] = NO donor combined with caspofungin
[11] = NO donor combined with fluconazole
[12] = NO donor combined with miconazole
[13] = ATCC14053, Candida albicans ATCC 14053
[14] = ATCC18804, Candida albicans ATCC 18804
[15] = Cryptococcus neoformans ATCC MYA-4566
[16] = Cryptococcus neoformans ATCC MYA-4567
[17] = ATCC208821, 72 h, Cryptococcus neoformans ATCC 208821
[18] = ATCC208821, Cryptococcus neoformans ATCC 208821
[19] = phosphate-buffered saline 10 mM, pH 7.4, 37 °C

NCCCN(CCCN)/[N+]([O-])=N/O [DPTA/NO, bis(3-aminopropyl) amine/NO]
checkerboard classification [1, 7]: I (indifferent (I)) | ∑FIC [1, 7]: ≥ 1 | checkerboard classification [1, 8]: I (indifferent (I)) | ∑FIC [1, 8]: ≥ 1 | checkerboard classification [1, 9]: I (indifferent (I)) | ∑FIC [1, 9]: ≥ 1 | checkerboard classification [1, 10]: I (indifferent (I)) | ∑FIC [1, 10]: ≥ 1 | checkerboard classification [1, 11]: I (indifferent (I)) | ∑FIC [1, 11]: ≥ 1 | checkerboard classification [1, 12]: S (Synergistic (S)) | ∑FIC [1, 12]: 0.375 | MIC (Candida albicans; [13]): 625 µg/mL (≈ 3270 µM) | NO dose at MIC (Candida albicans; [13]): 131 µg/mL | MIC (Candida albicans; [14]): 625 µg/mL (≈ 3270 µM) | NO dose at MIC (Candida albicans; [14]): 131 µg/mL | Selectivity Index (IC50 AIR-100 / MIC) (Candida albicans; C. albicans ATCC 14053): 28 | Selectivity Index (IC50 AIR-100 / MIC) (Candida albicans; C. albicans ATCC 18804): 28 | Selectivity Index (IC50 AIR-100 / MIC) (Candida albicans; C. albicans ATCC MYA-2876): 35 | MIC (Candida albicans; Candida albicans ATCC MYA-2876): 500 µg/mL (≈ 2610 µM) | NO dose at MIC (Candida albicans; Candida albicans ATCC MYA-2876): 105 µg/mL | Selectivity Index (IC50 AIR-100 / MIC) (Candida auris; C. auris ATCC MYA-5000): 28 | Selectivity Index (IC50 AIR-100 / MIC) (Candida auris; C. auris ATCC MYA-5001): 35 | Selectivity Index (IC50 AIR-100 / MIC) (Candida auris; C. auris ATCC MYA-5003): 57 | MIC (Candida auris; Candida auris ATCC MYA-5000): 625 µg/mL (≈ 3270 µM) | MIC (Candida auris; Candida auris ATCC MYA-5001): 500 µg/mL (≈ 2610 µM) | MIC (Candida auris; Candida auris ATCC MYA-5003): 310 µg/mL (≈ 1620 µM) | NO dose at MIC (Candida auris; Candida auris ATCC MYA-5000): 131 µg/mL | NO dose at MIC (Candida auris; Candida auris ATCC MYA-5001): 105 µg/mL | NO dose at MIC (Candida auris; Candida auris ATCC MYA-5003): 65.3 µg/mL | Selectivity Index (IC50 AIR-100 / MIC) (Cryptococcus neoformans; C. neoformans ATCC 208821): 18 | Selectivity Index (IC50 AIR-100 / MIC) (Cryptococcus neoformans; C. neoformans ATCC MYA-4566): 28 | Selectivity Index (IC50 AIR-100 / MIC) (Cryptococcus neoformans; C. neoformans ATCC MYA-4567): 28 | MIC (Cryptococcus neoformans; [15]): 625 µg/mL (≈ 3270 µM) | MIC (Cryptococcus neoformans; [16]): 625 µg/mL (≈ 3270 µM) | MIC (Cryptococcus neoformans; [17]): 1000 µg/mL (≈ 5230 µM) | NO dose at MIC (Cryptococcus neoformans; [18]): 210 µg/mL | NO dose at MIC (Cryptococcus neoformans; [15]): 131 µg/mL | NO dose at MIC (Cryptococcus neoformans; [16]): 131 µg/mL | selectivity indices, all strains (panel of fungal isolates): below 100 | [NO]t, total NO released over full duration ([2]; pH 7.4): 7.0 ± 1.1 µmol/mg | [NO]max, maximum instantaneous NO concentration [2, 19]: 2867 ± 211 ppb mg^−1 | td, duration of NO release [2, 19]: 31.0 ± 3.3 h | checkerboard classification [3, 7]: I (indifferent (I)) | ∑FIC [3, 7]: ≥ 1 | checkerboard classification [3, 8]: I (indifferent (I)) | ∑FIC [3, 8]: ≥ 1 | checkerboard classification [3, 9]: I (indifferent (I)) | ∑FIC [3, 9]: ≥ 1 | checkerboard classification [3, 10]: I (indifferent (I)) | ∑FIC [3, 10]: ≥ 1 | checkerboard classification [3, 11]: I (indifferent (I)) | ∑FIC [3, 11]: ≥ 1 | checkerboard classification [3, 12]: I (indifferent (I)) | ∑FIC [3, 12]: ≥ 1 | change in MIC or MFCs after serial passaging (C. auris (MYA-5001)): no changes | checkerboard classification (C. auris (ATCC MYA-5001); [7]): I (indifferent (I)) | ∑FIC (C. auris (ATCC MYA-5001); [7]): ≥ 1 | checkerboard classification (C. auris (ATCC MYA-5001); [8]): I (indifferent (I)) | ∑FIC (C. auris (ATCC MYA-5001); [8]): ≥ 1 | checkerboard classification (C. auris (ATCC MYA-5001); [9]): I (indifferent (I)) | ∑FIC (C. auris (ATCC MYA-5001); [9]): ≥ 1 | checkerboard classification (C. auris (ATCC MYA-5001); [10]): I (indifferent (I)) | ∑FIC (C. auris (ATCC MYA-5001); [10]): ≥ 1 | checkerboard classification (C. auris (ATCC MYA-5001); [11]): I (indifferent (I)) | ∑FIC (C. auris (ATCC MYA-5001); [11]): ≥ 1 | checkerboard classification (C. auris (ATCC MYA-5001); [12]): A (additive (A)) | ∑FIC (C. auris (ATCC MYA-5001); [12]): 0.625 | Selectivity Index (IC50 AIR-100 / MIC) [4]: 14 | MIC [4]: 1250 µg/mL (≈ 6540 µM) | NO dose at MIC [4]: 262 µg/mL | outcome of passaging at sub-MIC dose [5]: yeast death after the second passage | IC50 [6]: 18000 µg/mL (≈ 94100 µM)

NCCCNCCCCN(CCCN)/[N+]([O-])=N/O [SPER/NO, spermine/NO]
checkerboard classification [1, 7]: I (indifferent (I)) | ∑FIC [1, 7]: ≥ 1 | checkerboard classification [1, 8]: I (indifferent (I)) | ∑FIC [1, 8]: ≥ 1 | checkerboard classification [1, 9]: A (additive (A)) | ∑FIC [1, 9]: 0.562 | checkerboard classification [1, 10]: I (indifferent (I)) | ∑FIC [1, 10]: ≥ 1 | checkerboard classification [1, 11]: I (indifferent (I)) | ∑FIC [1, 11]: ≥ 1 | checkerboard classification [1, 12]: S (Synergistic (S)) | ∑FIC [1, 12]: 0.500 | MIC (Candida albicans; [13]): 250 µg/mL (≈ 953 µM) | NO dose at MIC (Candida albicans; [13]): 38.6 µg/mL | MIC (Candida albicans; [14]): 150 µg/mL (≈ 572 µM) | NO dose at MIC (Candida albicans; [14]): 23.1 µg/mL | Selectivity Index (IC50 AIR-100 / MIC) (Candida albicans; C. albicans ATCC 14053): 82 | Selectivity Index (IC50 AIR-100 / MIC) (Candida albicans; C. albicans ATCC 18804): 137 | Selectivity Index (IC50 AIR-100 / MIC) (Candida albicans; C. albicans ATCC MYA-2876): 164 | MIC (Candida albicans; Candida albicans ATCC MYA-2876): 125 µg/mL (≈ 476 µM) | NO dose at MIC (Candida albicans; Candida albicans ATCC MYA-2876): 19.2 µg/mL | Selectivity Index (IC50 AIR-100 / MIC) (Candida auris; C. auris ATCC MYA-5000): 164 | Selectivity Index (IC50 AIR-100 / MIC) (Candida auris; C. auris ATCC MYA-5001): 82 | Selectivity Index (IC50 AIR-100 / MIC) (Candida auris; C. auris ATCC MYA-5003): 164 | MIC (Candida auris; Candida auris ATCC MYA-5000): 125 µg/mL (≈ 476 µM) | MIC (Candida auris; Candida auris ATCC MYA-5001): 250 µg/mL (≈ 953 µM) | MIC (Candida auris; Candida auris ATCC MYA-5003): 125 µg/mL (≈ 476 µM) | NO dose at MIC (Candida auris; Candida auris ATCC MYA-5000): 19.2 µg/mL | NO dose at MIC (Candida auris; Candida auris ATCC MYA-5001): 38.6 µg/mL | NO dose at MIC (Candida auris; Candida auris ATCC MYA-5003): 19.2 µg/mL | Selectivity Index (IC50 AIR-100 / MIC) (Cryptococcus neoformans; C. neoformans ATCC 208821): 41 | Selectivity Index (IC50 AIR-100 / MIC) (Cryptococcus neoformans; C. neoformans ATCC MYA-4566): 1079 | Selectivity Index (IC50 AIR-100 / MIC) (Cryptococcus neoformans; C. neoformans ATCC MYA-4567): 263 | MIC (Cryptococcus neoformans; [15]): 19 µg/mL (≈ 72.4 µM) | MIC (Cryptococcus neoformans; [16]): 78 µg/mL (≈ 297 µM) | MIC (Cryptococcus neoformans; [17]): 500 µg/mL (≈ 1910 µM) | NO dose at MIC (Cryptococcus neoformans; [18]): 76.8 µg/mL | NO dose at MIC (Cryptococcus neoformans; [15]): 3.08 µg/mL | NO dose at MIC (Cryptococcus neoformans; [16]): 12 µg/mL | [NO]max, maximum instantaneous NO concentration [2, 19]: 7535 ± 222 ppb mg^−1 | [NO]t, total NO released over full duration [2, 19]: 5.1 ± 0.2 µmol/mg | td, duration of NO release [2, 19]: 14.8 ± 2.9 h | checkerboard classification [3, 7]: I (indifferent (I)) | ∑FIC [3, 7]: ≥ 1 | checkerboard classification [3, 8]: I (indifferent (I)) | ∑FIC [3, 8]: ≥ 1 | checkerboard classification [3, 9]: I (indifferent (I)) | ∑FIC [3, 9]: ≥ 1 | checkerboard classification [3, 10]: I (indifferent (I)) | ∑FIC [3, 10]: ≥ 1 | checkerboard classification [3, 11]: I (indifferent (I)) | ∑FIC [3, 11]: ≥ 1 | checkerboard classification [3, 12]: S (Synergistic (S)) | ∑FIC [3, 12]: 0.265 | change in MIC or MFCs after serial passaging (C. auris (MYA-5001)): no changes | checkerboard classification (C. auris (ATCC MYA-5001); [7]): I (indifferent (I)) | ∑FIC (C. auris (ATCC MYA-5001); [7]): ≥ 1 | checkerboard classification (C. auris (ATCC MYA-5001); [8]): I (indifferent (I)) | ∑FIC (C. auris (ATCC MYA-5001); [8]): ≥ 1 | checkerboard classification (C. auris (ATCC MYA-5001); [9]): I (indifferent (I)) | ∑FIC (C. auris (ATCC MYA-5001); [9]): ≥ 1 | checkerboard classification (C. auris (ATCC MYA-5001); [10]): I (indifferent (I)) | ∑FIC (C. auris (ATCC MYA-5001); [10]): ≥ 1 | checkerboard classification (C. auris (ATCC MYA-5001); [11]): I (indifferent (I)) | ∑FIC (C. auris (ATCC MYA-5001); [11]): ≥ 1 | checkerboard classification (C. auris (ATCC MYA-5001); [12]): S (Synergistic (S)) | ∑FIC (C. auris (ATCC MYA-5001); [12]): 0.375 | Selectivity Index (IC50 AIR-100 / MIC) [4]: 293 | MIC [4]: 70 µg/mL (≈ 267 µM) | NO dose at MIC [4]: 10.7 µg/mL | outcome of passaging at sub-MIC dose [5]: yeast death after the second passage | IC50 [6]: 20000 µg/mL (≈ 76200 µM)
